Assay [1] concerns the target T1, Androgen receptor (Rattus norvegicus, UniProt P15207).
T1 sequence (P15207 whole entry): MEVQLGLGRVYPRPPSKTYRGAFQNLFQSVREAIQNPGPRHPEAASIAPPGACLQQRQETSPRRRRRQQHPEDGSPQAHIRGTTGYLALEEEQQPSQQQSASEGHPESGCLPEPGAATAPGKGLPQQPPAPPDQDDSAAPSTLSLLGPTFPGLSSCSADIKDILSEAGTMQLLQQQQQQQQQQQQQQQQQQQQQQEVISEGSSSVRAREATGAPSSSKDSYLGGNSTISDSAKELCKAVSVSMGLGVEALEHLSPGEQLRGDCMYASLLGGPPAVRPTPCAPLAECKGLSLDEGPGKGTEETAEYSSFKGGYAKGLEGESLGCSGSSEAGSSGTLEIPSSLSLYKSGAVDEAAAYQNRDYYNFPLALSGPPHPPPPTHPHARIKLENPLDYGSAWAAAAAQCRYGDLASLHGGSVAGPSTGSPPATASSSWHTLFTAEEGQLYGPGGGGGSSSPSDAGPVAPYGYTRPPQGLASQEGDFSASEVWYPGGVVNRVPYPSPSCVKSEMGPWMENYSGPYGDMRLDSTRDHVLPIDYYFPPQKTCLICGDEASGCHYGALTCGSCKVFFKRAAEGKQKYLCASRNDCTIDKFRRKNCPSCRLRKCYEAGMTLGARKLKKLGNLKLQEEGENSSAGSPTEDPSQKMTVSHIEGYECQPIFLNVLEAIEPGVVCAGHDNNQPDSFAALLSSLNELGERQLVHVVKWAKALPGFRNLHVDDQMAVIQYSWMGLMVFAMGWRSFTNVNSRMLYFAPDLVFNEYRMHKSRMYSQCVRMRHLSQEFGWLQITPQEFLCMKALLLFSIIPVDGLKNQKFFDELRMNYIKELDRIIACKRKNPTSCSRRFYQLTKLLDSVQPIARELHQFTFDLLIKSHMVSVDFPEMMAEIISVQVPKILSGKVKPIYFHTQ
In kind it is functional.

Assay [2] has as its target T2, Gamma-aminobutyric acid receptor subunit alpha-1/alpha-2/beta-2/gamma-2 (Homo sapiens, UniProt P14867+P18507+P47869+P47870). The format is functional, cell-based.
For assay [3], the target named is T2, Gamma-aminobutyric acid receptor subunit alpha-1/alpha-2/beta-2/gamma-2. In kind it is functional, cell-based. The source holds these as a separate data set.
Assay [4] concerns the target 5-hydroxytryptamine receptor 2B (Homo sapiens, UniProt P41595).
For assay [5], the target named is T1, Androgen receptor.
Assay [6] has as its target T3, Endothelin receptor type B (Homo sapiens, UniProt P24530).
T3 sequence (P24530 whole entry): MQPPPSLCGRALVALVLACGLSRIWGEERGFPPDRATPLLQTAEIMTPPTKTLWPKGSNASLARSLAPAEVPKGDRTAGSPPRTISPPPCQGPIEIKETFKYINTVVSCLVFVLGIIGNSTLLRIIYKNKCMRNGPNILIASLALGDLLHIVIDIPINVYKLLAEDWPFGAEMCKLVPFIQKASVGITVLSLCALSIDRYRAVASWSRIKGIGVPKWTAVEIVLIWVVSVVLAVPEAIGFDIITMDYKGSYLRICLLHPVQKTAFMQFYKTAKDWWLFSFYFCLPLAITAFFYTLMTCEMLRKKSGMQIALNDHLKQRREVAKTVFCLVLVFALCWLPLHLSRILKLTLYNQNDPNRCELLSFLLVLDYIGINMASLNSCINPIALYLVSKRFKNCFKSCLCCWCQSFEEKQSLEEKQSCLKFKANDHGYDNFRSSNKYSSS

Assay [7] concerns the target Glucagon receptor (Homo sapiens, UniProt P47871).
In assay [8] the target is T4, Progesterone receptor (Homo sapiens, UniProt P06401).
T4 sequence (P06401 whole entry): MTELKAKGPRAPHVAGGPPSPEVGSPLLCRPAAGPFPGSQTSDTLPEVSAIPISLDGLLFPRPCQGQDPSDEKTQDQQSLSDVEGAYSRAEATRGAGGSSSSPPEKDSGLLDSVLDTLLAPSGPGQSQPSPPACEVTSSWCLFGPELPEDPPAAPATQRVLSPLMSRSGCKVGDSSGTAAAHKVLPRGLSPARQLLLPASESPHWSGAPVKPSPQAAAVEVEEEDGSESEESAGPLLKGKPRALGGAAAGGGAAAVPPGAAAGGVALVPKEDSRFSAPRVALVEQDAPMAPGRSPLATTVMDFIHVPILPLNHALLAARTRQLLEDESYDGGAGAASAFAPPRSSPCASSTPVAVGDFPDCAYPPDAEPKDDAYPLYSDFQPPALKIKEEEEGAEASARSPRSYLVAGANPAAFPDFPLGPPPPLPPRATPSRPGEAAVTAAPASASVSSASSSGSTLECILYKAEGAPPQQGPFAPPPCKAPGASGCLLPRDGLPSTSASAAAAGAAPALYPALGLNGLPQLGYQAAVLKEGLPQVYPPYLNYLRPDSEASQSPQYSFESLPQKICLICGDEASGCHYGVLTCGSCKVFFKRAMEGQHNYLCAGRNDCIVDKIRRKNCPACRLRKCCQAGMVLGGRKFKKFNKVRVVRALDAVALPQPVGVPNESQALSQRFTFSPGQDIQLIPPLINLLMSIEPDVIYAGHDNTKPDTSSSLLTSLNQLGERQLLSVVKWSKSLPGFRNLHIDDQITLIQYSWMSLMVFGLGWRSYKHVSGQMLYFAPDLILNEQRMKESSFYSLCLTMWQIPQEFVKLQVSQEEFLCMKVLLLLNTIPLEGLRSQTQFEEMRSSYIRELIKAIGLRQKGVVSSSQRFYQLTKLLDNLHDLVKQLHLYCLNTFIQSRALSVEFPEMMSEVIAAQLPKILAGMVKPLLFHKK

18 molecules from ChEMBL document CHEMBL5291721, “A preclinical secondary pharmacology resource illuminates target-adverse drug reaction associations of marketed drugs” (Nat Commun, 2023) can be followed below.

Structures are written as SMILES. Where a SMILES comes first, the peptide text is derived from it.
Further: assay procedure not described here.

Sequence of 5-hydroxytryptamine receptor 2B (P41595 whole entry): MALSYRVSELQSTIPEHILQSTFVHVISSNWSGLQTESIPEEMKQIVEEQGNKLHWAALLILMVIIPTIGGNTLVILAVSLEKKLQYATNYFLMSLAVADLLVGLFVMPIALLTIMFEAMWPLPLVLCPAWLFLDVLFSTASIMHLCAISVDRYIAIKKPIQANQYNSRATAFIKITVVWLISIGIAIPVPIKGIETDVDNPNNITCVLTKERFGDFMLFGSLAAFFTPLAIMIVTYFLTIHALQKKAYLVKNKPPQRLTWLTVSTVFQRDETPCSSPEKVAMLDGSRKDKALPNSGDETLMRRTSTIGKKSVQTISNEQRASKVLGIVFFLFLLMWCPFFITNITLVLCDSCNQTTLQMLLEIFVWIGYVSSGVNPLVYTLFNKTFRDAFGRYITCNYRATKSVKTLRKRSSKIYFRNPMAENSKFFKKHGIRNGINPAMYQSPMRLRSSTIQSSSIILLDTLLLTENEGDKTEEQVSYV
T2 sequence (P14867 whole entry): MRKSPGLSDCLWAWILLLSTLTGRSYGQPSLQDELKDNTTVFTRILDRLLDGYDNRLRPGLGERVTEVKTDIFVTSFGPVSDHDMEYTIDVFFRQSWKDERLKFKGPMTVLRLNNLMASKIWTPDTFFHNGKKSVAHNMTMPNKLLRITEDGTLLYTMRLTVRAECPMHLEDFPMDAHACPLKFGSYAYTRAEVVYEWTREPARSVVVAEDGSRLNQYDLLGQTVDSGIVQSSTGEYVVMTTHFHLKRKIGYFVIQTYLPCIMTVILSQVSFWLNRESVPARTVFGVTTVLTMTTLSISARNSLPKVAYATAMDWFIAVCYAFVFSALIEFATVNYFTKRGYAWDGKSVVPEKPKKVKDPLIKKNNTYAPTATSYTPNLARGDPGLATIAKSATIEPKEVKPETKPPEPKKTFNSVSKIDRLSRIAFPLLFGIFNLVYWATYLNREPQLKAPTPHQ
T2 sequence (P47870 whole entry): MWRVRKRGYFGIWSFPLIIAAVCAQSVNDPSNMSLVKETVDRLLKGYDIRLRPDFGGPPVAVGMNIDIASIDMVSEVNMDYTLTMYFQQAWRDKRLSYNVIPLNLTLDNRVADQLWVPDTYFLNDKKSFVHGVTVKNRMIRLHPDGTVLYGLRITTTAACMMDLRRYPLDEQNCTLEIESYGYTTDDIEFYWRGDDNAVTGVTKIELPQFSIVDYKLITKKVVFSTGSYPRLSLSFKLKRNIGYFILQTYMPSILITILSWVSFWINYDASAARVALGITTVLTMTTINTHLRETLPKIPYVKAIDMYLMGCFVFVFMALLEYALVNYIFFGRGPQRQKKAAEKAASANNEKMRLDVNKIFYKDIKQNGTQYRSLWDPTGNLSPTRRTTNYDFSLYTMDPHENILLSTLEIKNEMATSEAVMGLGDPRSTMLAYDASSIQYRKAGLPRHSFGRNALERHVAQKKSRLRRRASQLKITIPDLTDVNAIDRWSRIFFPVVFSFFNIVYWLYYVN
T2 sequence (P18507 whole entry): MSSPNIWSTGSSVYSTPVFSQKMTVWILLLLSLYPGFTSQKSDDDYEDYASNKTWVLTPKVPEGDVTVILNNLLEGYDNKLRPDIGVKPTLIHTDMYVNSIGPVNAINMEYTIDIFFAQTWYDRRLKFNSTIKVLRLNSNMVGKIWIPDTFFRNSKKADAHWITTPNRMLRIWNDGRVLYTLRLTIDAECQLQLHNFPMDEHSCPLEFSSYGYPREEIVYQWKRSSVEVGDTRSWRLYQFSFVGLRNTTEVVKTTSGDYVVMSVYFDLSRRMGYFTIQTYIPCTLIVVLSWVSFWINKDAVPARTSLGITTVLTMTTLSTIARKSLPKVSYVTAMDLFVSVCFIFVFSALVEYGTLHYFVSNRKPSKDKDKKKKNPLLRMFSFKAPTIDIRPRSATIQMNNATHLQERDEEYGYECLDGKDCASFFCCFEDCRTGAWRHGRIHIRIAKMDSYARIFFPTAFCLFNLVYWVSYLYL
T2 sequence (P47869 whole entry): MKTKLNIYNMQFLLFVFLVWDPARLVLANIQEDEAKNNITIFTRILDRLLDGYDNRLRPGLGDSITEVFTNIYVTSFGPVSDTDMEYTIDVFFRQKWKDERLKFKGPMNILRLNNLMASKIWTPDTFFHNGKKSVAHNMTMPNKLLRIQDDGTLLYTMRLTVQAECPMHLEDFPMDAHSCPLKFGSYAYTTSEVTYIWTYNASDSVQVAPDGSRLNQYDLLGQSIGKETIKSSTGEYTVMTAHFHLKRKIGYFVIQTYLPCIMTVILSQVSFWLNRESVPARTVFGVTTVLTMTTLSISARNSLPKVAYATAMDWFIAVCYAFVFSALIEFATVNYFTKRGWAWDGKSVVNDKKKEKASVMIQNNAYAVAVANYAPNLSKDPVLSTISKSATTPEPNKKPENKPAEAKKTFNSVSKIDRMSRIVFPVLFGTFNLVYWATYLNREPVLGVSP
Sequence of Glucagon receptor (P47871 whole entry): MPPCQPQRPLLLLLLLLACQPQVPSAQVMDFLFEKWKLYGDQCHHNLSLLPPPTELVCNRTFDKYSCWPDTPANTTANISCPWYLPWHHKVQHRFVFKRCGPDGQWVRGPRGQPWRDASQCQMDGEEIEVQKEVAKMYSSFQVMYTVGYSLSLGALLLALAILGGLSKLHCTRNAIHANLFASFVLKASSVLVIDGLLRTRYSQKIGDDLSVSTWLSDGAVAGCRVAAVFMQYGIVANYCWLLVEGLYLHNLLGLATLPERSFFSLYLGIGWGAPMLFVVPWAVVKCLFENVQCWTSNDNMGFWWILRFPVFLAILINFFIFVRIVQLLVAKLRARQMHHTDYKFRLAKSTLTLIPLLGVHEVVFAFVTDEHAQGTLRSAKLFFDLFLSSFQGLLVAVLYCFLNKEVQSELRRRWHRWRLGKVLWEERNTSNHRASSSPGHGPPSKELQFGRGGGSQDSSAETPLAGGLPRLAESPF

With `O=C(O)c1ccc2nc(-c3cc(Cl)cc(Cl)c3)oc2c1`, in assay [1], the AC50 is over 30 µM.
For the molecule `NS(=O)(=O)c1ccc(N2CCCCS2(=O)=O)cc1`, the AC50 in assay [1], in assay [2] and in assay [3] was over 30 µM in each case.
`C[C@H](N)C(=O)N[C@@H](CCC(N)=O)C(=O)O` [ALANYL GLUTAMINE] (H-Ala-Gln-OH) returned an AC50 in assay [1] of over 30 µM.
Take `COc1ccc(-n2nc(C(N)=O)c3c2C(=O)N(c2ccc(N4CCCCC4=O)cc2)CC3)cc1` [APIXABAN]: the half-maximal activity concentration (AC50) in assay [1], in assay [2] and in assay [3] was over 30 µM throughout.
As to `CCCO[C@H]1[C@@H]([C@@H](COCc2ccc(Cl)cc2)OCc2ccc(Cl)cc2)OC(OCC)[C@@H]1O` (stereo partly drawn) [CLOBENOSIDE], the AC50 in assay [1] is over 30 µM.
In the case of `CC(=O)Oc1cccc2c1C(=O)c1c(OC(C)=O)cc(C(=O)O)cc1C2=O` [DIACEREIN], the half-maximal activity concentration (AC50) in assay [1] and in assay [4] was over 30 µM throughout.
Take `Cc1ccc(-c2ncc(Cl)cc2-c2ccc(S(C)(=O)=O)cc2)cn1` [ETORICOXIB]: the AC50 was over 30 µM in assay [5]; over 30 µM in assay [6]; over 30 µM in assay [7]; over 10 µM in assay [4]; over 30 µM in assay [8].
Molecule `CC(=O)OCC(=O)[C@@]1(O)CC[C@H]2[C@@H]3CCC4=CC(=O)CC[C@]4(C)[C@@]3(F)[C@@H](O)C[C@@]21C` [FLUDROCORTISONE ACETATE] had an AC50 in assay [1] of over 30 µM.
Turning to `CN1C(=O)CN=C(c2ccccc2F)c2cc([N+](=O)[O-])ccc21` [FLUNITRAZEPAM], the AC50 in assay [5] is over 30 µM; in assay [6], over 30 µM; in assay [7], over 30 µM; in assay [4], over 10 µM; in assay [8], over 10 µM.
`Cc1ccc(S(=O)(=O)NC(=O)N[C@H]2[C@H]3CC[C@@](C)([C@H]2O)C3(C)C)cc1` [GLIBORNURIDE] came in with an AC50 in assay [1] of over 30 µM.
Consider `CCC(=O)O[C@H](CC(=O)O)C[N+](C)(C)C` [LEVOCARNITINE PROPIONATE], for which the AC50 in assay [1], in assay [2] and in assay [3] was over 30 µM each time.
As for `O=C(O)c1nn(Cc2ccc(Cl)cc2Cl)c2ccccc12` [LONIDAMINE], the concentration at half-maximal activity (AC50) in assay [1] and in assay [3] was over 30 µM each time.
Turning to `COC(=O)c1ccc2c(c1)NC(=O)/C2=C(\Nc1ccc(N(C)C(=O)CN2CCN(C)CC2)cc1)c1ccccc1` [NINTEDANIB], the AC50 in assay [1], in assay [2] and in assay [3] was over 30 µM each time.
`CN1CCCN=C1/C=C/c1cccc(O)c1` [OXANTEL] displayed an AC50 in assay [1] of 26 µM.
Take `CCCCOC(=O)C(=O)Nc1cccc(-c2nnn[nH]2)c1` [TAZANOLAST]: in assay [1], the AC50 is over 30 µM.
Same read-out and setting: next, `CCCCC[C@H](O)CC[C@@H]1[C@H]2Cc3cccc(OCC(=O)O)c3C[C@H]2C[C@H]1O` [TREPROSTINIL]: over 30 µM.
Same read-out and setting: next, `CN(C)CCOCC(=O)NC12CC3CC(CC(C3)C1)C2` [TROMANTADINE]: over 30 µM.
For the molecule `CCCCCCCC(=O)CC[C@@H]1[C@@H](C/C=C\CCCC(=O)O)[C@@H](O)C[C@H]1O` [UNOPROSTONE], the AC50 in assay [1], in assay [2] and in assay [3] was over 30 µM throughout.

By AC50 is commonly meant the concentration at which the activity in the assay is half-maximal.
